From US20240246908A1 (ORION CORPORATION, priority 2021, published 2024)

test system: YAP-TEAD; assay: TEAD inhibition, Hippo Pathway TEAD Reporter MCF-7 luciferase assay; format: cell-based; details: Homo sapiens, MCF7, 24 h, Hippo Pathway TEAD Reporter MCF-7 cells, luciferase activity after 24 h; read-out: IC50 of the test compounds on YAP-TEAD inhibition (Group)
Summary of the method: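 MCF-7 cells carrying a TEAD-responsive firefly luciferase reporter, with nuclear YAP1 driving constitutive expression, were treated the day after plating with compounds (11 concentrations, 4 replicates; 0.1% DMSO control). After 24 h, luciferase was read by ONE-Glo luminescence and IC50 determined.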

SMILES	IC50
COc1ccc(Oc2ccc(C(F)(F)F)cn2)cc1NC(=O)[C@@H]1COC(=O)N1C [Compound 125, (S)—N-(2-Methoxy-5-((5-(trifluoromethyl)pyridin-2-yl)oxy)phenyl)-3-methyl-2-oxooxazolidine-4-carboxamide]	50 to 300 nM
COc1ccc(Oc2ccc(C(F)(F)F)cn2)cc1NC(=O)[C@H]1COC(=O)N1C [Compound 126, (R)—N-(2-Methoxy-5-((5-(trifluoromethyl)pyridin-2-yl)oxy)phenyl)-3-methyl-2-oxooxazolidine-4-carboxamide]	50 to 300 nM
CCN1C(=O)NCC1C(=O)Nc1cc(Oc2ccc(C(F)(F)F)cn2)ccc1OC (stereo not shown) [Compound 127, 3-Ethyl-N-(2-methoxy-5-((5-(trifluoromethyl)pyridin-2-yl)oxy)phenyl)-2-oxo-imidazolidine-4-carboxamide]	50 to 300 nM
COc1ccc(Oc2ccc(C(F)(F)F)cn2)cc1NC(=O)[C@H]1CCC(=O)N1C1CC1 [Compound 128, (R)-1-Cyclopropyl-N-(2-methoxy-5-((5-(trifluoromethyl)pyridin-2-yl)oxy)-phenyl)-5-oxopyrrolidine-2-carboxamide]	< 50 nM
COc1ccc(Oc2ccc(C(F)(F)F)cn2)cc1NC(=O)[C@@H]1CCC(=O)N1C1CC1 [Compound 129, (S)-1-Cyclopropyl-N-(2-methoxy-5-((5-(trifluoromethyl)pyridin-2-yl)oxy)-phenyl)-5-oxopyrrolidine-2-carboxamide]	< 50 nM
COc1ccc(Oc2ccc(C(F)(F)F)cn2)cc1NC(=O)[C@@H]1CNC(=O)N1C [Compound 130, (S)—N-(2-Methoxy-5-((5-(trifluoromethyl)pyridin-2-yl)oxy)phenyl)-3-methyl-2-oxoimidazolidine-4-carboxamide]	< 50 nM
COc1ccc(Oc2ccc(C(F)(F)F)cn2)cc1NC(=O)C1CNC(=O)N1C1CC1 (stereo not shown) [Compound 131, 3-Cyclopropyl-N-(2-methoxy-5-((5-(trifluoromethyl)pyridin-2-yl)oxy)phenyl)-2-oxoimidazolidine-4-carboxamide]	< 50 nM
COc1ccc(Oc2ccc(C(F)(F)F)cc2)cc1NC(=O)[C@@]1(C)CCC(=O)N1C [Compound 134, (R)—N-(2-methoxy-5-(4-(trifluoromethyl)phenoxy)phenyl)-1,2-dimethyl-5-oxopyrrolidine-2-carboxamide]	< 50 nM
COc1ccc(Oc2ccc(C(F)(F)F)cc2)cc1NC(=O)[C@]1(C)CCC(=O)N1C [Compound 135, (S)—N-(2-Methoxy-5-(4-(trifluoromethyl)phenoxy)phenyl)-1,2-dimethyl-5-oxo-pyrrolidine-2-carboxamide]	50 to 300 nM
COc1ccc(Oc2ccc(C(F)(F)F)cc2)cc1NC(=O)C1CCC(=O)N1CC(N)=O (stereo not shown) [Compound 136, 1-(2-Amino-2-oxoethyl)-N-(2-methoxy-5-(4-(trifluoromethyl)phenoxy)phenyl)-5-oxopyrrolidine-2-carboxamide]	< 50 nM
COc1ccc(Oc2ccc(C(F)(F)F)cc2)cc1NC(=O)C1CCC(=O)N1c1cnn(C)c1 (stereo not shown) [Compound 137, N-(2-Methoxy-5-(4-(trifluoromethyl)phenoxy)phenyl)-1-(1-methyl-1H-pyrazol-4-yl)-5-oxopyrrolidine-2-carboxamide]	301 to 2000 nM
COc1ccc(Oc2ccc(C(F)(F)F)cc2)cc1NC(=O)C1CCC(=O)N1C1CCOC1 (stereo not shown) [Compound 138, N-(2-Methoxy-5-(4-(trifluoromethyl)phenoxy)phenyl)-5-oxo-1-(tetrahydrofuran-3-yl)pyrrolidine-2-carboxamide]	50 to 300 nM
COc1ccc(Oc2ccc(C(F)(F)F)cc2)cc1NC(=O)C1CN(C)C(=O)N1C (stereo not shown) [Compound 139, N-(2-Methoxy-5-(4-(trifluoromethyl)phenoxy)phenyl)-1,3-dimethyl-2-oxo-imidazolidine-4-carboxamide]	< 50 nM
COc1ccc(Oc2ccc(C(F)(F)F)cc2)cc1NC(=O)[C@H]1CNC(=O)N1C [Compound 140, (R)—N-(2-Methoxy-5-(4-(trifluoromethyl)phenoxy)phenyl)-3-methyl-2-oxo-imidazolidine-4-carboxamide]	50 to 300 nM
COc1ccc(Oc2ccc(C(F)(F)F)cc2)cc1NC(=O)[C@@H]1CNC(=O)N1C [Compound 141, (S)—N-(2-Methoxy-5-(4-(trifluoromethyl)phenoxy)phenyl)-3-methyl-2-oxoimidazolidine-4-carboxamide]	< 50 nM
COc1ccc(Oc2ccc(C(F)(F)F)cc2)cc1NC(=O)C1CN(C)C(=O)N1C(C)=O (stereo not shown) [Compound 142, 3-Acetyl-N-(2-methoxy-5-(4-(trifluoromethyl)phenoxy)phenyl)-1-methyl-2-oxoimidazolidine-4-carboxamide]	301 to 2000 nM
COc1ccc(Oc2ccc(C(F)(F)F)cc2)cc1NC(=O)[C@@H]1CC(OC)C(=O)N1C (stereo partly drawn) [Compound 143, (2S)-4-Methoxy-N-(2-methoxy-5-(4-(trifluoromethyl)phenoxy)phenyl)-1-methyl-5-oxopyrrolidine-2-carboxamide]	< 50 nM
COc1ccc(Oc2ccc(C(F)(F)F)cc2)cc1NC(=O)C1CNC(=O)N1 (stereo not shown) [Compound 144, N-(2-Methoxy-5-(4-(trifluoromethyl)phenoxy)phenyl)-2-oxoimidazolidine-4-carboxamide]	50 to 300 nM
COc1ccc(Oc2ccc(C(F)(F)F)cc2)cc1NC(=O)C1CCC(=O)N1CC1CC1 (stereo not shown) [Compound 147, 1-(Cyclopropylmethyl)-N-(2-methoxy-5-(4-(trifluoromethyl)phenoxy)phenyl)-5-oxopyrrolidine-2-carboxamide]	50 to 300 nM
COc1ccc(Oc2ccc(C(F)F)cc2)cc1NC(=O)C1CNC(=O)N1C (stereo not shown) [Compound 149, N-(5-(4-(Difluoromethyl)phenoxy)-2-methoxyphenyl)-3-methyl-2-oxoimidazoli-dine-4-carboxamide]	< 50 nM
CN1C(=O)CC[C@H]1C(=O)Nc1cc(O[C@H]2CC[C@H](C(F)(F)F)CC2)cc2c1OCC2 [Compound 150, (S)-1-Methyl-5-oxo-N-(5-(((trans)-4-(trifluoromethyl)cyclohexyl)oxy)-2,3-dihydrobenzofuran-7-yl)pyrrolidine-2-carboxamide]	< 50 nM
CN1C(=O)CC[C@@H]1C(=O)Nc1cc(O[C@H]2CC[C@H](C(F)(F)F)CC2)cc2c1OCC2 [Compound 151, (R)-1-Methyl-5-oxo-N-(5-(((trans)-4-(trifluoromethyl)cyclohexyl)oxy)-2,3-dihydrobenzofuran-7-yl)pyrrolidine-2-carboxamide]	< 50 nM
COc1cc(F)c(Oc2ccc(C(F)(F)F)cn2)cc1NC(=O)C1COC(=O)N1C (stereo not shown) [Compound 152, N-(4-Fluoro-2-methoxy-5-((5-(trifluoromethyl)pyridin-2-yl)oxy)phenyl)-3-methyl-2-oxooxazolidine-4-carboxamide]	< 50 nM

The next lines start with the values.

IC50	SMILES
< 50 nM	COc1cc(F)c(Oc2ccc(C(F)(F)F)cn2)cc1NC(=O)C1CNC(=O)N1C (stereo not shown) [Compound 153, N-(4-Fluoro-2-methoxy-5-((5-(trifluoromethyl)pyridin-2-yl)oxy)phenyl)-3-methyl-2-oxoimidazolidine-4-carboxamide]
< 50 nM	COc1cc(F)c(Oc2ccc(C(F)(F)F)cn2)cc1NC(=O)[C@H]1COC(=O)N1C [Compound 154, (R)—N-(4-Fluoro-2-methoxy-5-((5-(trifluoromethyl)pyridin-2-yl)-oxy)phenyl)-3-methyl-2-oxooxazolidine-4-carboxamide]
50 to 300 nM	COc1cc(F)c(Oc2ccc(C(F)(F)F)cn2)cc1NC(=O)[C@H]1CNC(=O)N1C [Compound 155, (R)—N-(4-Fluoro-2-methoxy-5-((5-(trifluoromethyl)pyridin-2-yl)oxy)phenyl)-3-methyl-2-oxoimidazolidine-4-carboxamide]
< 50 nM	CN1C(=O)NCC1C(=O)Nc1cc(Oc2ccc(C(F)(F)F)cn2)cc2c1OCC2 (stereo not shown) [Compound 159, 3-Methyl-2-oxo-N-(5-((5-(trifluoromethyl)pyridin-2-yl)oxy)-2,3-dihydrobenzo-furan-7-yl)imidazolidine-4-carboxamide]
50 to 300 nM	O=C1CC(C(=O)Nc2cc(Oc3ccc(C(F)(F)F)cn3)cc3c2OCC3)CCN1 (stereo not shown) [Compound 160, 2-Oxo-N-(5-((5-(trifluoromethyl)pyridin-2-yl)oxy)-2,3-dihydrobenzofuran-7-yl)-piperidine-4-carboxamide]
50 to 300 nM	O=C1CCC(C(=O)Nc2cc(Oc3ccc(C(F)(F)F)cn3)cc3c2OCC3)CN1 (stereo not shown) [Compound 161, 6-Oxo-N-(5-((5-(trifluoromethyl)pyridin-2-yl)oxy)-2,3-dihydrobenzofuran-7-yl)piperidine-3-carboxamide]
< 50 nM	CN1C(=O)CC[C@@H]1C(=O)Nc1cc(Oc2ccc(C(F)(F)F)cn2)cc2c1OCC2 [Compound 162, (R)-1-Methyl-5-oxo-N-(5-((5-(trifluoromethyl)pyridin-2-yl)oxy)-2,3-dihydro-benzofuran-7-yl)pyrrolidine-2-carboxamide]
< 50 nM	CN1C(=O)CC[C@H]1C(=O)Nc1cc(Oc2ccc(C(F)(F)F)cn2)cc2c1OCC2 [Compound 163, (S)-1-Methyl-5-oxo-N-(5-((5-(trifluoromethyl)pyridin-2-yl)oxy)-2,3-dihydro-benzofuran-7-yl)pyrrolidine-2-carboxamide]
< 50 nM	O=C(Nc1cc(Oc2ccc(C(F)(F)F)cn2)cc2c1OCC2)C1CNC(=O)N1C1CC1 (stereo not shown) [Compound 164, 3-Cyclopropyl-2-oxo-N-(5-((5-(trifluoromethyl)pyridin-2-yl)oxy)-2,3-dihydro-benzofuran-7-yl)imidazolidine-4-carboxamide]
< 50 nM	O=C(Nc1cc(Oc2ccc(C(F)(F)F)cn2)cc2c1OCC2)[C@@H]1CCC(=O)N1C1CC1 [Compound 165, (S)-1-Cyclopropyl-5-oxo-N-(5-((5-(trifluoromethyl)pyridin-2-yl)oxy)-2,3-dihydrobenzofuran-7-yl)pyrrolidine-2-carboxamide]
< 50 nM	O=C(Nc1cc(Oc2ccc(C(F)(F)F)cn2)cc2c1OCC2)[C@H]1CCC(=O)N1C1CC1 [Compound 166, (R)-1-Cyclopropyl-5-oxo-N-(5-((5-(trifluoromethyl)pyridin-2-yl)oxy)-2,3-dihydrobenzofuran-7-yl)pyrrolidine-2-carboxamide]
